This passage reports IC50 results from patent publication US8163724B2, “Glucocorticosteroids, processes for their preparation, pharmaceutical compositions containing them and their use in therapy” (AstraZeneca AB, priority 2007, dated 2012).

This assay concerns the target T1, recombinant human GR (Homo sapiens, UniProt P04150).
T1 construct: purchased Panvera/Invitrogen P2812 (kit P2893)
T1 sequence (P04150 1-777): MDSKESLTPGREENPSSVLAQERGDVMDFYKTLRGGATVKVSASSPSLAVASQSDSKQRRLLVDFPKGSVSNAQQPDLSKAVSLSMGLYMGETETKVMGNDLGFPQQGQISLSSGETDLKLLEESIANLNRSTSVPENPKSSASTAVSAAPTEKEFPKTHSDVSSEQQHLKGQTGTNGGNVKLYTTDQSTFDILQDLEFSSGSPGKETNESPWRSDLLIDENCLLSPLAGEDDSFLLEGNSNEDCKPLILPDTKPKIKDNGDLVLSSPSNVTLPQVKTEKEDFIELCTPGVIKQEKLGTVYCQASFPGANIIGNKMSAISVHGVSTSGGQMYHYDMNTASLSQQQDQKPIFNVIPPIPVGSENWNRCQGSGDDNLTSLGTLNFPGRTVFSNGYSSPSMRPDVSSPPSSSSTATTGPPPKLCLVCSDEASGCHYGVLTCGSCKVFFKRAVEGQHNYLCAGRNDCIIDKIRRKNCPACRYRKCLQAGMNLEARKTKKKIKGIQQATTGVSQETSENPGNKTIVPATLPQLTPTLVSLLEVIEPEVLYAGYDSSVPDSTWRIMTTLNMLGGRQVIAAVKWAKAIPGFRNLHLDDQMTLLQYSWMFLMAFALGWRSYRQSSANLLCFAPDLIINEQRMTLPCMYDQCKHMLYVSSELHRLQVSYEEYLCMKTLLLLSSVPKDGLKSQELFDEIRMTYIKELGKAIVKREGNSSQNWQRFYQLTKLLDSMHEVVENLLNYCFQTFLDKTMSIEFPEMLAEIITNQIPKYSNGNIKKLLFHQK
Nature of the assay: Human Glucocorticoid Receptor (GR) Assay (fluorescence polarization, Panvera/Invitrogen kit). The assay is classed as binding. The conditions noted are these: fluorescence polarization; GS Red tracer; 2 hours at room temperature; 100% control 10 μM Dexamethasone; read-out: Inhibition of GR binding, IC50. The essentials:
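Fluorescence polarization competition with recombinant GR and GS Red fluorescent ligand plus stabilizing peptide and DTT in potassium phosphate/sodium molybdate/EDTA buffer with DMSO. Incubated 2 hours at room temperature in the dark; 0% control DMSO, 100% control 10 μM dexamethasone.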
Take `COCCCSC(=O)[C@@]1(OC(=O)c2ccco2)CC[C@H]2[C@@H]3CCC4=Cc5c(cnn5-c5ccc(F)cc5)C[C@]4(C)[C@H]3[C@@H](O)C[C@@]21C` [Example 85, (1R,3aS,3bS,10aR,10bS,11S,12aS)-7-(4-Fluorophenyl)-11-hydroxy-{[(3-methoxypropyl)sulfanyl]carbonyl}-10a,12a-dimethyl-1,2,3,3a,3b,4,5,7,10,10a,10b,11,12,12a-tetradecahydrocyclopenta[5,6]naphtho[1,2-f]indazol-1-yl furan-2-carboxylate]: the IC50 worked out at 6.3 nM.

With `C[C@]12Cc3cnn(-c4ccc(F)cc4)c3C=C1CC[C@@H]1[C@@H]2[C@@H](O)C[C@@]2(C)[C@H]1CC[C@]2(OC(=O)c1ccco1)C(=O)SCCCC#N` [Example 86, (1R,3aS,3bS,10aR,10bS,11S,12aS)-1-{[(3-Cyanopropyl)sulfanyl]carbonyl}-7-(4-fluorophenyl)-11-hydroxy-10a,12a-dimethyl-1,2,3,3a,3b,4,5,7,10,10a,10b,11,12,12a-tetradecahydrocyclopenta[5,6]naphtho[1,2-f]indazol-1-yl furan-2-carboxylate], the IC50 worked out at 3.5 nM.

On to `CC(=O)OCC(=O)CSC(=O)[C@@]1(OC(=O)c2ccco2)CC[C@H]2[C@@H]3CCC4=Cc5c(cnn5-c5ccc(F)cc5)C[C@]4(C)[C@H]3[C@@H](O)C[C@@]21C` [Example 87, (1R,3aS,3bS,10aR,10bS,11S,12aS)-1-({[3-(Acetyloxy)-2-oxopropyl]sulfanyl}carbonyl)-7-(4-fluorophenyl)-11-hydroxy-10a,12a-dimethyl-1,2,3,3a,3b,4,5,7,10,10a,10b,11,12,12a-tetradecahydrocyclopenta[5,6]naphtho[1,2-f]indazol-1-yl furan-2-carboxylate], for which the concentration for half-maximal inhibition (IC50) amounted to 5.3 nM.

For the compound `C=C(CSC(=O)[C@@]1(OC(=O)c2ccco2)CC[C@H]2[C@@H]3CCC4=Cc5c(cnn5-c5ccc(F)cc5)C[C@]4(C)[C@H]3[C@@H](O)C[C@@]21C)OCOC` [Example 88, (1R,3aS,3bS,10aR,10bS,11S,12aS)-7-(4-fluorophenyl)-11-hydroxy-1-({[2-(methoxymethoxy)prop-2-en-1-yl]sulfanyl}carbonyl)-10a,12a-dimethyl-1,2,3,3a,3b,4,5,7,10,10a,10b,11,12,12a-tetradecahydrocyclopenta[5,6]naphtho[1,2-f]indazol-1-yl furan-2-carboxylate], the concentration for half-maximal inhibition (IC50) is 13 nM.

In the case of `CC(=O)CSC(=O)[C@@]1(OC(=O)c2ccco2)CC[C@H]2[C@@H]3CCC4=Cc5c(cnn5-c5ccc(F)cc5)C[C@]4(C)[C@H]3[C@@H](O)C[C@@]21C` [Example 89, (1R,3aS,3bS,10aR,10bS,11S,12aS)-7-(4-Fluorophenyl)-11-hydroxy-10a,12a-dimethyl-1-{[(2-oxopropyl)sulfanyl]carbonyl}-1,2,3,3a,3b,4,5,7,10,10a,10b,11,12,12a-tetradecahydrocyclopenta[5,6]naphtho[1,2-f]indazol-1-yl furan-2-carboxylate], the IC50 amounted to 6.9 nM. With `C[C@]12Cc3cnn(-c4ccc(F)cc4)c3C=C1CC[C@@H]1[C@@H]2[C@@H](O)C[C@@]2(C)[C@H]1CC[C@]2(OC(=O)c1ccco1)C(=O)SCC(N)=O` [Example 90, (1R,3aS,3bS,10aR,10bS,11S,12aS)-1-{[(2-Amino-2-oxoethyl)sulfanyl]carbonyl}-7-(4-fluorophenyl)-11-hydroxy-10a,12a-dimethyl-1,2,3,3a,3b,4,5,7,10,10a,10b,11,12,12a-tetradecahydrocyclopenta[5,6]naphtho[1,2-f]indazol-1-yl furan-2-carboxylate] the figure was 4.6 nM. As for `C[C@]12Cc3cnn(-c4ccc(F)cc4)c3C=C1CC[C@@H]1[C@@H]2[C@@H](O)C[C@@]2(C)[C@H]1CC[C@]2(OC(=O)c1ccco1)C(=O)SCCO` [Example 91, (1R,3aS,3bS,10aR,10bS,11S,12aS)-7-(4-fluorophenyl)-11-hydroxy-1-{[(2-hydroxyethyl)sulfanyl]carbonyl}-10a,12a-dimethyl-1,2,3,3a,3b,4,5,7,10,10a,10b,11,12,12a-tetradecahydrocyclopenta[5,6]naphtho[1,2-f]indazol-1-yl furan-2-carboxylate], the IC50 is 3.7 nM. With `C[C@]12Cc3cnn(-c4ccc(F)cc4)c3C=C1CC[C@@H]1[C@@H]2[C@@H](O)C[C@@]2(C)[C@H]1CC[C@]2(OC(=O)c1ccco1)C(=O)SCCCO` [Example 92, (1R,3aS,3bS,10aR,10bS,11S,12aS)-7-(4-Fluorophenyl)-11-hydroxy-1-{[(3-hydroxypropyl)sulfanyl]carbonyl}-10a,12a-dimethyl-1,2,3,3a,3b,4,5,7,10,10a,10b,11,12,12a-tetradecahydrocyclopenta[5,6]naphtho[1,2-f]indazol-1-yl furan-2-carboxylate] the figure was 4 nM; with `COCSC(=O)[C@@]1(OC(=O)c2ccco2)CC[C@H]2[C@@H]3CCC4=Cc5c(cnn5-c5ccc(F)cc5)C[C@]4(C)[C@H]3[C@@H](O)C[C@@]21C` [Example 93, (1R,3aS,3bS,10aR,10bS,11S,12aS)-7-(4-Fluorophenyl)-11-hydroxy-1-{[(methoxymethyl)sulfanyl]carbonyl}-10a,12a-dimethyl-1,2,3,3a,3b,4,5,7,10,10a,10b,11,12,12a-tetradecahydrocyclopenta[5,6]naphtho[1,2-f]indazol-1-yl furan-2-carboxylate], 5.6 nM; with `CC(=O)OCSC(=O)[C@@]1(OC(=O)c2ccco2)CC[C@H]2[C@@H]3CCC4=Cc5c(cnn5-c5ccc(F)cc5)C[C@]4(C)[C@H]3[C@@H](O)C[C@@]21C` [Example 94, (1R,3aS,3bS,10aR,10bS,11S,12aS)-1-({[(Acetyloxy)methyl]sulfanyl}carbonyl)-7-(4-fluorophenyl)-11-hydroxy-10a,12a-dimethyl-1,2,3,3a,3b,4,5,7,10,10a,10b,11,12,12a-tetradecahydrocyclopenta[5,6]naphtho[1,2-f]indazol-1-yl furan-2-carboxylate], 5.9 nM. With `CCC(=O)O[C@]1(C(=O)SCCOC(C)=O)CC[C@H]2[C@@H]3CCC4=Cc5c(cnn5-c5ccc(F)cc5)C[C@]4(C)[C@H]3[C@@H](O)C[C@@]21C` [Example 95, (1R,3aS,3bS,10aR,10bS,11S,12aS)-1-({[2-(Acetyloxy)ethyl]sulfanyl}carbonyl)-7-(4-fluorophenyl)-11-hydroxy-10a,12a-dimethyl-1,2,3,3a,3b,4,5,7,10,10a,10b,11,12,12a-tetradecahydrocyclopenta[5,6]naphtho[1,2-f]indazol-1-yl propanoate] the figure was 4.7 nM. To `CCC(=O)O[C@]1(C(=O)SCC#N)CC[C@H]2[C@@H]3CCC4=Cc5c(cnn5-c5ccc(F)nc5)C[C@]4(C)[C@H]3[C@@H](O)C[C@@]21C` [Example 97, (1R,3aS,3bS,10aR,10bS,11S,12aS)-1-{[(Cyanomethyl)sulfanyl]carbonyl}-7-(6-fluoropyridin-3-yl)-11-hydroxy-10a,12a-dimethyl-1,2,3,3a,3b,4,5,7,10,10a,10b,11,12,12a-tetradecahydrocyclopenta[5,6]naphtho[1,2-f]indazol-1-yl propanoate] belongs 2.1 nM.
